Patent US20170014354A1, “ZEAXANTHIN FOR TUMOR TREATMENT” (The New York Eye and Ear Infirmary, priority 2012, published 2017)

Assays:
LoVo = assay: MTT cell viability, LoVo colon cancer; assay type: cell-based; conditions: 48 h, vs control
Description: (§1) Each malignant tumor cell line was cultured in Dulbecco's modified Eagle's medium (DMEM, GIBCO, Carlsbad, Calif.) supplemented with 10% fetal bovine serum (FBS, GIBCO). Cells were incubated in a humidified 5% CO2 atmosphere at 37° C. After reaching confluence, cells were detached by trypsin-EDTA solution (GIBCO), diluted 1:4-1:6, plated for subculture and were passaged routinely at a dilution of 1:4-1:6 every 4-6 days.
(§2) All cell lines were tested in triplicates.

SCC1 = assay: MTT cell viability, SCC1 cutaneous squamous carcinoma; assay type: cell-based; conditions: 48 h, vs control
Description: as §1, §2

HCT116 = assay: MTT cell viability, HCT116 colon cancer; assay type: cell-based; conditions: 48 h, vs control
Description: as §1, §2

DU-145 = assay: MTT cell viability, DU-145 prostate cancer; assay type: cell-based; conditions: 48 h, vs control
Description: as §1, §2

NCI-H1755 = assay: MTT cell viability, NCI-H1755 lung cancer; assay type: cell-based; conditions: for Cell viability: 48 h, MTT, vs control
Description: as §1, §2

HeLa = assay: MTT cell viability, HeLa cervix cancer; assay type: cell-based; conditions: 48 h, vs control
Description: as §1, §2

PANC-1 = assay: MTT cell viability, PANC-1 pancreatic cancer; assay type: cell-based; conditions: for Cell viability: 48 h, MTT, vs control
Description: as §1, §2

OCM2 = assay: MTT cell viability, OCM2 uveal melanoma; assay type: cell-based; conditions: 48 h, vs control
Description: as §1, §2

MDA = assay: MTT cell viability, MDA breast cancer; assay type: cell-based; conditions: for Cell viability: 48 h, MTT, vs control
Description: as §1, §2

malignant hepatic tumor = assay: Treatment of a patient with recurred malignant hepatic tumor; assay type: in vivo, human; conditions: one patient
Description: In this example, zeaxanthin was used to treat a patient with malignant hepatic tumor. […] The tumor recurred in a few months in the patient after resection. The patient was then treated with zeaxanthin in view of the extensive and safe use of zeaxanthin as a supplement of the treatment of macular disorders.
In treating the recurred malignant hepatic tumor in the patient, we prescribed a dose of 80 mg/day of zeaxanthin which was used to supplement their conventional treatment of Avastin® infusion. […] The patient's condition continued to improve under the combination therapy of zeaxanthin and Avastin® infusion in the next 9 months. The patient was able to resume their social life during the period of 9 months and then passed away after 2 months. The patient's life was prolonged more than 1 year following their projected mortality under the conventional Avastin® infusion treatment on the recurring malignant hepatic tumor.
Therefore, a dosage of about 1.2 mg/kg/d of zeaxanthin was sufficient to help reducing tumor cell viability in the patient under the combination therapy.

COLO829 = assay: MTT cell viability, COLO829 cutaneous melanoma; assay type: cell-based; conditions: 48 h, vs control
Description: as §1, §2

OS143 = assay: MTT cell viability, OS143 osteosarcoma; assay type: cell-based; conditions: 48 h, vs control
Description: as §1, §2

M17 = assay: MTT cell viability, M17 uveal melanoma; assay type: cell-based, human; conditions: 48 h, vs control
Description: as §1, §2

SP6.5 = assay: MTT cell viability, SP6.5 uveal melanoma; assay type: cell-based; conditions: vs control; for Cell viability: 48 h, MTT; for reduction of cell viabilities: FIG. 1B
Description: as §1, §2

[1] = system: uveal melanoma cells (SP6.5); assay: Annexin V-FITC staining apoptosis analysis; assay type: cell-based
Description: FIG. 3 illustrates the fluorescence photomicrograph of pro-apoptotic effects of zeaxanthin on uveal melanoma cells after annexin V-FTIC staining. Melanoma cells (SP6.5 cell line) were treated by zeaxanthin at a concentration of 100 μM for 24 hr, and the extent of apoptosis was determined by annexin V-FTIC staining. Cells were observed under fluorescence microscope using 492 nm and 530 nm filters for recognizing and detecting FITC.
In these tests, we measured the extent of apoptosis of cells treated with zeaxanthin by annexin V-FITC staining analysis. Specifically, uveal melanoma cells (SP6.5) were plated into 8-well plates at a density of 6×10^4 cells/well. After culturing for 24 hours, cells were treated with zeaxanthin at final concentration of 10, 30, and 100 μM for another 24 hours in a CO2 incubator at 37C. Then the culture medium was aspirated and the cells were washed with the binding buffer in preparation for annexin V-FITC staining analysis. FITC-annexin V was added into each well and the cells were stained for 15 min in the dark, followed by washing with the binding buffer. The cells were then observed under fluorescence microscope using 492 nm and 530 nm filters that facilitate FITC fluorescence detection to measure the extent of apoptosis based on the principle that cell membranes of apoptotic cells were stained bright green in color.

NCI-H820 = assay: MTT cell viability, NCI-H820 lung cancer; assay type: cell-based; conditions: 48 h, vs control
Description: as §1, §2

T-47D = assay: MTT cell viability, T-47D breast cancer; assay type: cell-based; conditions: 48 h, vs control
Description: as §1, §2

SMILES: CC1=C(/C=C/C(C)=C/C=C/C(C)=C/C=C/C=C(C)/C=C/C=C(C)/C=C/C2=C(C)C[C@@H](O)CC2(C)C)C(C)(C)C[C@H](O)C1 [zeaxanthin]
- Cell viability (LoVo; 10 μM zeaxanthin): 76 ± 3.8%
- Cell viability (LoVo; 30 μM zeaxanthin): 51 ± 2.5%
- Cell viability (LoVo; 100 μM zeaxanthin): 32 ± 1.6%
- Cell viability (SCC1; SCC1, 10 μM zeaxanthin): 80 ± 3.5%
- Cell viability (SCC1; SCC1, 30 μM zeaxanthin): 65 ± 2.9%
- Cell viability (SCC1; SCC1, 100 μM zeaxanthin): 13 ± 1.4%
- Cell viability (HCT116; HCT116, 10 μM zeaxanthin): 67 ± 3.7%
- Cell viability (HCT116; HCT116, 30 μM zeaxanthin): 56 ± 2.3%
- Cell viability (HCT116; HCT116, 100 μM zeaxanthin): 16 ± 1.4%
- Cell viability (DU-145; DU-145, 10 μM zeaxanthin): 78 ± 5.0%
- Cell viability (DU-145; DU-145, 30 μM zeaxanthin): 65 ± 5.5%
- Cell viability (NCI-H1755; NCI-H1755, 10 μM zeaxanthin): 86 ± 6.7%
- Cell viability (NCI-H1755; NCI-H1755, 30 μM zeaxanthin): 81 ± 4.5%
- Cell viability (NCI-H1755; NCI-H1755, 100 μM zeaxanthin): 81 ± 90%
- final concentration at which cell viability decreased significantly (NCI-H1755; NCI-H1755, vs cells without zeaxanthin): ≥ 30 µM
- Cell viability (HeLa; 10 μM zeaxanthin): 66 ± 3.3%
- Cell viability (HeLa; 30 μM zeaxanthin): 46 ± 1.6%
- Cell viability (HeLa; 100 μM zeaxanthin): 7.9 ± 2.0%
- final concentration at which cell viability decreased significantly (PANC-1; PANC, vs cells without zeaxanthin): ≥ 100 µM
- Cell viability (PANC-1; PANC-1, 10 μM zeaxanthin): 101 ± 6.0%
- Cell viability (PANC-1; PANC-1, 30 μM zeaxanthin): 98 ± 5.5%
- Cell viability (PANC-1; PANC-1, 100 μM zeaxanthin): 76 ± 5.1%
- Cell viability (OCM2; OCM2, 10 μM zeaxanthin): 90 ± 4.9%
- Cell viability (OCM2; OCM2, 30 μM zeaxanthin): 70 ± 2.1%
- Cell viability (OCM2; OCM2, 100 μM zeaxanthin): 46 ± 2.0%
- Cell viability (MDA; 10 μM zeaxanthin): 97 ± 6.36%
- Cell viability (MDA; 30 μM zeaxanthin): 95 ± 5.1%
- Cell viability (MDA; 100 μM zeaxanthin): 92 ± 9.2%
- decrease of cell viability after zeaxanthin treatment (MDA; final concentration as high as 100 μM): did not see statistically significant decrease of cell viability
- MRI scans of multiple recurrent hepatic tumors (malignant hepatic tumor; 80 mg/day zeaxanthin supplementing Avastin infusion, after several months): began to shrink significantly to the point of where the tumors could not be detected
- prolongation of life beyond projected mortality under conventional Avastin infusion (malignant hepatic tumor; 80 mg/day zeaxanthin with Avastin infusion): more than 1 year
- Cell viability (COLO829; COLO829, 10 μM zeaxanthin): 73 ± 4.6%
- Cell viability (COLO829; COLO829, 30 μM zeaxanthin): 52 ± 2.0%
- Cell viability (COLO829; COLO829, 100 μM zeaxanthin): 28 ± 1.2%
- Cell viability (OS143; OS143, 10 μM zeaxanthin): 82 ± 5.0%
- Cell viability (OS143; OS143, 30 μM zeaxanthin): 78 ± 3.4%
- Cell viability (OS143; OS143, 100 μM zeaxanthin): 42 ± 1.3%
- Cell viability (M17; M17, 10 μM zeaxanthin): 84 ± 3.9%
- Cell viability (M17; M17, 30 μM zeaxanthin): 69 ± 2.5%
- Cell viability (M17; M17, 100 μM zeaxanthin): 41 ± 1.0%
- Cell viability (SP6.5; SP6.5, 10 μM zeaxanthin): 86 ± 4.3%
- reduction of cell viabilities (SP6.5; SP6.5, 10 μM zeaxanthin): about 14%
- Cell viability (SP6.5; SP6.5, 30 μM zeaxanthin): 64 ± 1.7%
- reduction of cell viabilities (SP6.5; SP6.5, 30 μM zeaxanthin): ~36%
- Cell viability (SP6.5; SP6.5, 100 μM zeaxanthin): 42 ± 2.2%
- reduction of cell viabilities (SP6.5; SP6.5, 100 μM zeaxanthin): ~58%
- annexin V staining of the cell membrane (apoptotic cells) ([1]; SP6.5, 100 μM zeaxanthin, 24 hr, FIG. 3): numerous cells showed staining of the cell membrane with annexin V
- extent of apoptosis (annexin V-FITC staining) ([1]; SP6.5, 10, 30 and 100 μM zeaxanthin, 24 hours): apoptosis in uveal melanoma cells induced by zeaxanthin in a dose-dependent manner
- Cell viability (NCI-H820; NCI-H820, 10 μM zeaxanthin): 76 ± 4.5%
- Cell viability (NCI-H820; NCI-H820, 30 μM zeaxanthin): 68 ± 3.1%
- Cell viability (NCI-H820; NCI-H820, 100 μM zeaxanthin): 38 ± 1.7%
- Cell viability (T-47D; 10 μM zeaxanthin): 83 ± 4.2%
- Cell viability (T-47D; 30 μM zeaxanthin): 57 ± 3.5%
- Cell viability (T-47D; 100 μM zeaxanthin): 31 ± 1.4%
